The record followed here is patent US20210277050A1, “OPHTHALMIC COMPOSITIONS AND METHODS FOR THE TREATMENT OF EYE DISORDERS” (Cellix Bio Private Limited, priority 2018, published 2021).

In data set [1] the test system is BSO-Induced Cataract Formation. Description: BSO-induced cataract formation in rats (slit-lamp, lenses opaque or clear). The note with it: read at 14-15 days; for animals developed cataract: new born rats.
Protocol: Effects of CLX-SYN-G165-001 on BSO-Induced Cataract Formation in Rats Sprague-Dawley rats (female, timed pregnant) were housed in the Research Animal Facilities and given food and water ad libitum. They were breast fed.
Animals were divided into 3 groups and given 4 injections per day for 2 days, according to the following protocol: Each experimental group consisted of 20-25 animals. BSO, L-Buthionine-(S,R)-sulfoximine was dissolved in 0.1 M NaCl and injected at a concentration of 3 mmol/g body weight (total volume not exceeding 60 ml). CLX-SYN-G165-001 was dissolved in ethanol: NaCl (50:50, v/v). BSO was injected subcutaneously into new born animals (age 28-36 hours). CLX-SYN-G165-001 (15 mg/kg b.w.) was given intraperitoneally. An equivalent volume of ethanol: NaCl and/or NaCl was given to the controls. Rats were sacrificed when they opened their eyes (14-15 days). Cataract formation was visualized with a slit-lamp microscope and the lenses were classified as opaque or clear.
The next data set has as its system Lens GSH. The experiment in a line: Lens GSH and GSSG level (enzymatic recycling method) in BSO-treated rats.

Protocol for Lens GSH: Animals were divided into 3 groups and given 4 injections per day for 2 days, according to the following protocol: Each experimental group consisted of 20-25 animals. BSO, L-Buthionine-(S,R)-sulfoximine was dissolved in 0.1 M NaCl and injected at a concentration of 3 mmol/g body weight (total volume not exceeding 60 ml). CLX-SYN-G165-001 was dissolved in ethanol: NaCl (50:50, v/v). BSO was injected subcutaneously into new born animals (age 28-36 hours). CLX-SYN-G165-001 (15 mg/kg b.w.) was given intraperitoneally. An equivalent volume of ethanol: NaCl and/or NaCl was given to the controls. Rats were sacrificed when they opened their eyes (14-15 days). […] Isolation of lenses: After decapitation of the animals the eyes were carefully dissected out from the ciliary body and the lens capsule was released from the enucleated eye globes. Each lens was weighed and placed in a microfuge tube and frozen immediately in liquid nitrogen for future analyses. Glutathione: Frozen lenses were homogenized in 5% sulfosalicylic acid, 5 mM EDTA, ice cold and bubbled with argon. After centrifugation GSH and GSSG were determined by the enzymatic recycling method.

As to `CCCCS(=N)(=O)CCC(N)C(=O)O` [BSO, L-Buthionine-(S,R)-sulfoximine, reference compound], the animals developed cataracts in data set [1] (BSO alone, subcutaneously, new born rats (age 28-36 hours)) stood at 100%. Moreover, the “GSH in the lenses, % lower than that of the control lenses” value with Lens GSH (BSO-treated rats) is reported as “about 55%”.

On to `CC(C)=CCC[C@@H](C)[C@H]1CC[C@@]2(C)C3=C(CC[C@]12C)[C@@]1(C)CC[C@H](OC(=O)CCCC[C@@H]2CCSS2)C(C)(C)[C@@H]1CC3` [CLX-SYN-G165-001], for which the animals developed cataract was found to be 13% in data set [1] (BSO plus CLX-SYN-G165-001 (15 mg/kg b.w. intraperitoneally), 4 injections per day for 2 days, p<0.005 vs BSO only) and 0% in data set [1] (CLX-SYN-G165-001 without BSO (15 mg/kg b.w. intraperitoneally)). Moreover, in the data set on Lens GSH (treatment with BSO and CLX-SYN-G165-001, p<0.001 vs BSO only), the “lens GSH level, % that of control level” value is given as 84-87%.
